Experiments:
[1] = target: Human CB1R (Cannabinoid receptor 1) (Homo sapiens, UniProt P21554); assay: CB-1 in vitro cAMP (HTRF) assay; assay type: cell-based; conditions: HEK cells, cAMP HTRF, 250 nM forskolin; mean where tested more than once; read-out: CB1 HEK_cAMP EC50
How it was run: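 Intracellular cAMP from HTRF ratio (d2-cAMP vs Eu-cryptate anti-cAMP), converted to nM via per-plate standards, in stable human CB1R HEK-293 cells.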

[2] = target: Human CB2R (Cannabinoid receptor 2) (Homo sapiens, UniProt P34972); assay: CB-2 in vitro cAMP (HTRF) assay; assay type: cell-based; conditions: HEK cells, cAMP HTRF, 250 nM forskolin; mean where tested more than once; read-out: CB2 HEK_cAMP EC50
Sequence of Human CB2R (Cannabinoid receptor 2) (P34972 whole entry): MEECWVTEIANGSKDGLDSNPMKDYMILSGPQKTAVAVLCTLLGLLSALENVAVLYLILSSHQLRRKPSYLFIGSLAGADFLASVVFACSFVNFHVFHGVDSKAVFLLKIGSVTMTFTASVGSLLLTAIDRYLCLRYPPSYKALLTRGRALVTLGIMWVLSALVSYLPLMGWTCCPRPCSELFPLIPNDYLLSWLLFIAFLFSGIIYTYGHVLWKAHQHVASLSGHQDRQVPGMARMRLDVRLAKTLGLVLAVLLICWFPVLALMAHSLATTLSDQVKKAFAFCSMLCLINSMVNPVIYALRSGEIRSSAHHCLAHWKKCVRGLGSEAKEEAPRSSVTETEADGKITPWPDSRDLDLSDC
How it was run: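 Competitive HTRF read-out (d2-labelled cAMP vs cryptate antibody) quantifies cAMP in stably transfected HEK-293 cells, seeded the day before at 4E5 cells/mL. Stimulation buffer: HBSS, 5 mM HEPES, 0.1% BSA, 0.5 mM IBMX; forskolin prepared at 1.5 μM in buffer; compounds serially diluted 1/3 in DMSO.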

Sequence of Human CB1R (Cannabinoid receptor 1) (P21554 whole entry): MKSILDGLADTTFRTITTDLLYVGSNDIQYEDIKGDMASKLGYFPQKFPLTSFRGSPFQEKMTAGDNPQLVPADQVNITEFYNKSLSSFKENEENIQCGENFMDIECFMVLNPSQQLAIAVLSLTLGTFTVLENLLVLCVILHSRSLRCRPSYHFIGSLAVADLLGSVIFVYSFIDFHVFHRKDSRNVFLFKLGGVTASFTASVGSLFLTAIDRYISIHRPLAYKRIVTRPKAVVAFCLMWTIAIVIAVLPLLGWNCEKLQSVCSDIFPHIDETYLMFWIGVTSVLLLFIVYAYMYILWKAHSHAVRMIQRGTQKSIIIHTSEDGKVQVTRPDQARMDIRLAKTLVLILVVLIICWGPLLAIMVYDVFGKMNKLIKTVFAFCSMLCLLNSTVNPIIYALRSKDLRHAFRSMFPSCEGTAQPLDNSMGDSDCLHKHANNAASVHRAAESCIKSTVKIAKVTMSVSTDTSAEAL

SMILES | EC50 [1] [nM] | EC50 [2] [nM]
NC(=O)c1ccc(S(=O)(=O)N2CCC(n3c(C4CC4)nc4ccc(C(c5ccc(Cl)cc5)c5ccc(Cl)cc5)cc43)CC2)cc1F [Example 189] | 29.5 | > 10000
O=C(O)c1ccc(CCn2c(C3CC3)nc3ccc(C(c4ccc(Cl)cc4)c4ccc(Cl)cc4)cc32)cc1 [Example 38] | 4300 | 1700
O=C(O)CS(=O)(=O)N1CCC(n2c(C3CC3)nc3ccc(C(c4ccc(Cl)cc4)c4ccc(Cl)cc4)cc32)CC1 [Example 248] | 4240 | > 10000
O=C(NC1CCCC1)N1CCC(n2c(C3CC3)nc3ccc(C(c4ccc(Cl)cc4)c4ccc(Cl)cc4)cc32)CC1 [Example 74] | 70.6 | 5390
O=C(O)c1ccc(O)c(CN2CCC(n3c(C4CC4)nc4ccc(C(c5ccc(Cl)cc5)c5ccc(Cl)cc5)cc43)CC2)c1 [Example 82] | 995 | > 42000
CCOC(=O)COc1ccc(Cn2c(C3CC3)nc3ccc(C(c4ccc(Cl)cc4)c4ccc(Cl)cc4)cc32)cc1 [Example 175] | 5420 | 4750
CC(c1ccc(C(=O)O)o1)N1CCC(n2c(C3CC3)nc3ccc(C(c4ccc(Cl)cc4)c4ccc(Cl)cc4)cc32)CC1 (centres unmarked) [Example 86] | 15 | 10200
NC(=O)COc1cccc(-n2c(C3CC3)nc3ccc(C(c4ccc(Cl)cc4)c4ccc(Cl)cc4)cc32)c1 [Example 172] | 81.2 | > 10000
O=C(O)c1cc(CN2CCC(n3c(C4CC4)nc4ccc(C(c5ccc(Cl)cc5)c5ccc(Cl)cc5)cc43)CC2)ccc1O [Example 81] | 14.1 | 3200
O=C(O)c1ccccc1S(=O)(=O)N1CCC(n2c(C3CC3)nc3ccc(C(c4ccc(Cl)cc4)c4ccc(Cl)cc4)cc32)CC1 [Example 241] | 459 | 7900
NC(=O)c1ccccc1S(=O)(=O)N1CCC(n2c(C3CC3)nc3ccc(C(c4ccc(Cl)cc4)c4ccc(Cl)cc4)cc32)CC1 [Example 243] | 35.9 | 347
O=C(O)c1cncc(CN2CCC(n3c(C4CC4)nc4ccc(C(c5ccc(Cl)cc5)c5ccc(Cl)cc5)cc43)CC2)c1 [Example 123] | 13.4 | 7500
O=C(NCCO)c1ccc(S(=O)(=O)N2CCC(n3c(C4CC4)nc4ccc(C(c5ccc(Cl)cc5)c5ccc(Cl)cc5)cc43)CC2)cn1 [Example 204] | 94.4 | > 10000

Results, then the molecule that gave them:

EC50 [1] [nM] | EC50 [2] [nM] | SMILES
221 | 91 | CC(C)Cc1nc2ccc(C(c3ccc(Cl)cc3)c3nccs3)cc2n1C1CCN(S(=O)(=O)C(F)(F)F)CC1 (centres unmarked) [Example 396]
1.5 | > 10000 | NC(=O)c1cccc(S(=O)(=O)N2CCC(n3c(C4CC4)nc4ccc(C(c5ccc(Cl)cc5)c5ccc(Cl)cc5)cc43)CC2)c1 [Example 260]
6.6 | 9900 | CS(=O)(=O)N1CCC(n2c(C3CC3)nc3ccc(C(c4ccc(Cl)cc4)c4ccc(Cl)cc4)cc32)CC1 [Example 270]
2.9 | 9400 | COc1cc(S(=O)(=O)N2CCC(n3c(C4CC4)nc4ccc(C(c5ccc(Cl)cc5)c5ccc(Cl)cc5)cc43)CC2)ccc1C(N)=O [Example 250]
17.4 | > 10000 | O=S(=O)(N1CCC(n2c(C3CC3)nc3ccc(C(O)(c4ccc(Cl)cc4)c4ccc(Cl)cc4)cc32)CC1)C(F)(F)F [Example 303]
133 | > 10000 | NS(=O)(=O)N1CCC(n2c(C3CC3)nc3ccc(C(c4ccc(Cl)cc4)c4ccc(Cl)cc4)cc32)CC1 [Example 274]
163 | > 10000 | Clc1ccc(C(c2ccc(Cl)cc2)c2ccc3nc(C4CC4)n(C4Cc5ccccc5C4)c3c2)cc1 [Example 300]
2.3 | > 10000 | O=S(=O)(N1CCC(Cn2c(C3CCC3)nc3ccc(C(c4ccc(Cl)cc4)c4ccc(Cl)cc4)cc32)CC1)C(F)(F)F [Example 288]
33.6 | 9600 | NC(=O)CCC(=O)N1CCC(n2c(C3CC3)nc3ccc(C(c4ccc(Cl)cc4)c4ccc(Cl)cc4)cc32)CC1 [Example 273]
